{"source": "patent US8981094B2", "about": "“Piperidine/piperazine derivatives” (Janssen Pharmaceutica N.V., priority 2007, dated 2015)", "key": {"GLP-1 plasma levels": {"tested_on": "GLP-1 plasma levels", "assay": "In vivo study for effect of test compound on GLP-1 plasma levels (postprandial profile)", "settings": "dogs fasted 22 hours, liquid meal 18% fat, compound given orally with the meal; compared with own profile without compound; compound 223 at 0.3 mg/kg in FIG. 1", "protocol": "B) In Vivo Study for Effect of Test Compound on GLP-1 Plasma Levels\nElevation of GLP-1 plasma levels by a DGAT inhibitor was studied as follows:\n(§1) Dogs were deprived from food for a period of 22 hours. At time 0, animals were given a liquid meal, containing 18% fat (w/w), by gavage with a stomach tube. The test compound was given orally together with the meal. Afterwards, a postprandial plasma profile was determined for GLP-1. Therefore, blood was collected at predetermined time intervals in ice-cooled Vacutainers EDTA-plasma tubes and GLP-1 levels were measured in the samples taken at 0 hour (just before the meal) and at 0.5, 1, 2, 4, 6, 8 and 24 hours after dosing. Six dogs (3 males and 3 females) were included per dosage group and the plasma GLP-1 profile was compared with their own GLP-1 profile previously determined in the same conditions but without administration of the test compound.\nGLP-1 determinations in plasma were performed with a Glucagon-like peptide-1 (active) ELISA kit 96-well plate of LINCO Research."}, "[1]": {"tested_on": "plasma triglyceride levels", "assay": "Plasma triglyceride profile after liquid fat meal in dogs", "type": "in vivo", "settings": "liquid meal 18% fat, compound given orally, compared with own profile without compound", "protocol": "as §1\nIn addition to the plasma GLP-1 profile, also the plasma triglyceride profile can be determined and compared with their own triglyceride profile previously determined in the same conditions but without administration of the test compound. After administration of compound 223, triglyceride levels decreased."}, "human DGAT1": {"target": "T1, human DGAT1 (Homo sapiens, UniProt O75907)", "T1 construct": "FLAG (N); made in house; host or cells: SF9 insect cells (pFastBac baculovirus); total cell membranes", "T1 sequence (O75907 1-488)": "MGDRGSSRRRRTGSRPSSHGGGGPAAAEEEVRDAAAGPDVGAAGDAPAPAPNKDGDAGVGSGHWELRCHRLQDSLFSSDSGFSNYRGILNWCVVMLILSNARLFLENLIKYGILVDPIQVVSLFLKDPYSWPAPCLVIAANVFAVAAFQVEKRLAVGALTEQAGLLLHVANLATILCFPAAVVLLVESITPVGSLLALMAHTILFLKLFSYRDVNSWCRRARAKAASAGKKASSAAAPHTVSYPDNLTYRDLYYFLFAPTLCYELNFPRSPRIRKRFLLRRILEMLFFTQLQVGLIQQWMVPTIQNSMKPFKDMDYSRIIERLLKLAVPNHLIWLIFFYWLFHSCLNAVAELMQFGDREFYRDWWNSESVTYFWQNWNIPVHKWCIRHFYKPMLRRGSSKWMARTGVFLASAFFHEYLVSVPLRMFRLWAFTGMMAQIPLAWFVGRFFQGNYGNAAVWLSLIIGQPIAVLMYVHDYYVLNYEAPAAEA", "assay": "Inhibition of DGAT1 activity, FlashPlate assay with DGAT1 membrane preparations and substrate micelles", "type": "biochemical", "settings": "pIC50 = -logIC50, IC50 values expressed in M", "procedure,_shortened": "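FLAG-tagged human DGAT1 membranes (expressed in Sf9 cells) were incubated 120 min at 37° C. in 50 mM Tris-HCl pH 7.4 with 150 mM MgCl2, 1 mM EDTA, 0.2% BSA, 50 μM DAG micelles (PC/PS) and 8.4 μM [^3H]-oleoylCoA. The reaction was stopped with N-ethylmaleimide and read as FlashPlate radioluminescence. Responses were normalized to enzyme/no-enzyme controls to fit dose-response curves.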"}}, "data": [{"smiles": "COc1ccc(CC(=O)Nc2ccc(N3CCN(C(=O)Nc4c(Cl)cc(CN5CCCC5)cc4Cl)CC3)cc2)cc1", "note": "[Compound 223]", "values": [{"measurement": "GLP-1 plasma levels (postprandial plasma profile)", "setting": "GLP-1 plasma levels", "result": "increase GLP-1 levels"}, {"measurement": "melting point", "result": 252.22, "unit": "°C"}, {"measurement": "plasma triglyceride levels (profile)", "setting": "[1]", "result": "decreased"}, {"measurement": "IC50", "setting": "human DGAT1", "result": 0.02, "unit": "µM"}]}, {"smiles": "O=C(CCCc1ccccc1)Nc1ccc(N2CCN(C(=O)Nc3c(Cl)cc(O)cc3Cl)CC2)cc1", "note": "[Compound 30]", "values": [{"measurement": "GLP-1 plasma levels (postprandial plasma profile)", "setting": "GLP-1 plasma levels", "result": "increase GLP-1 levels"}, {"measurement": "melting point", "result": 175.4, "unit": "°C"}, {"measurement": "IC50", "setting": "human DGAT1", "result": 0.00447, "unit": "µM"}]}, {"smiles": "CNC(C)c1cc(Cl)c(NC(=O)N2CCN(c3ccc(NC(=O)CCCc4ccccc4)cc3)CC2)c(Cl)c1", "note": "(stereo not drawn) [Compound 24]", "values": [{"measurement": "GLP-1 plasma levels (postprandial plasma profile)", "setting": "GLP-1 plasma levels", "result": "increase GLP-1 levels"}, {"measurement": "melting point", "result": 180.7, "unit": "°C"}, {"measurement": "IC50", "setting": "human DGAT1", "result": 0.0158, "unit": "µM"}]}, {"smiles": "Cc1ccc(CNCC(=O)Nc2ccc(N3CCN(C(=O)Nc4c(Cl)cc(O)cc4Cl)CC3)cc2)c(C)c1", "note": "[Compound 311]", "values": [{"measurement": "melting point", "result": "212 to 213", "unit": "°C"}, {"measurement": "IC50", "setting": "human DGAT1", "result": 0.0437, "unit": "µM"}]}]}
